Source: patent US9988408B2, “Cytotoxic agents for conjugation to a cell binding molecule” (priority 2013, dated 2018)

Key:
Ramos cells = test: In vitro cytotoxicity (potency) against Ramos cells, WST-8 cell viability assay; assay type: cell-based; settings: Homo sapiens, 120 h, read-out: IC50, in vitro potency against Ramos cells
Experimental: In Vitro Potency Measurement Against Ramos Cells in 37° C., 5 Day Incubation
(§1) General Procedure Used: Samples of unconjugated free drug compounds or drug conjugates were added to 96-well flat bottomed tissue culture plates and titrated using serial dilutions to cover the desired molar range. Antigen positive (Ag^+) or Antigen negative (Ag^−) cells were added to the wells in specific cell densities (1000˜10000 cells/wall) in such a way that there were triplicate samples for each drug concentration for each corresponding cell line. All other cell lines were grown in RPMI-1640 (catalog no. 11875-085, Invitrogen), supplemented with 10% fetal bovine serum and gentamycin. The plates were then incubated at 37° C. in an atmosphere of 5% CO2 for 5 days. At the end of the incubation period cytotoxic potencies were then assessed using a WST-8 based cell viability assay and surviving cells were measured by developing with WST-8 (2-7 hours). The absorbance in each well was measured and the surviving fraction of cells at each concentration was plotted to reveal the cytotoxicity and/or antigen specificity (of the conjugates). The potency and specificity of the antibody-drug conjugates were measured against antigen-expressing cells, with and without the additions of an excess amount of blocking unconjugated antibody to show specificity of the killing effect.

Raji cells = test: In vitro cytotoxicity (potency) against Raji cells, WST-8 cell viability assay; assay type: cell-based; settings: Homo sapiens, 120 h, read-out: IC50 values towards Raji cells
Experimental: In Vitro Potency Measurement Against Raji Cells in 37° C., 5 Day Incubation
as §1

Row | SMILES | IC50 (Ramos cells) | IC50 (Raji cells)
1 | COc1cc2c(cc1OCP(=O)(COc1cc3c(cc1OC)C(=O)C1C[C@@H](F)C[C@H]1C=N3)NCCCSSc1ccccn1)N=C[C@@H]1C[C@H](F)CC1C2=O (some centres unmarked) [Example 68] | 0.1 to 0.5 nM | –
2 | C=C1C[C@H]2C=Nc3cc(OCCP(=O)(CCOc4cc5c(cc4OC)C(=O)N4CC(=C)C[C@H]4C=N5)CCSSC)c(OC)cc3C(=O)N2C1 [Example 39] | – | 0.005 to 0.011 nM
